In publication PMC11062922 (Nature Chemical Biology, 2023):

What was measured:
FN3KRP = test: Kinobeads competition binding: FN3KRP; parameters: species or system human; details: target FN3KRP;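 further: share of total target engagement due to this protein at one drug concentration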
MTHFD1 = test: Kinobeads competition binding: MTHFD1; parameters: species or system human; details: target MTHFD1;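 further: selectivity score: engagement of this protein divided by summed engagement of all targets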
CAMK2B = target: T1, CAMK2B (Homo sapiens, UniProt Q13554); test: Kinobeads competition binding: CAMK2B; details: target CAMK2B
T1 construct: endogenous in cells
Source text: Supplement 41589_2023_1459_MOESM4_ESM.xlsx, sheet "CATDS matrix" | column: CAMK2B

PDXK = target: T2, PDXK (Homo sapiens, UniProt O00764); test: Kinobeads competition binding: PDXK; details: target PDXK;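 further: share of total target engagement due to this protein at one drug concentration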
T2 construct: a mixture of lysates from five cancer cell lines; endogenous in cells
T2 sequence (O00764 1-312): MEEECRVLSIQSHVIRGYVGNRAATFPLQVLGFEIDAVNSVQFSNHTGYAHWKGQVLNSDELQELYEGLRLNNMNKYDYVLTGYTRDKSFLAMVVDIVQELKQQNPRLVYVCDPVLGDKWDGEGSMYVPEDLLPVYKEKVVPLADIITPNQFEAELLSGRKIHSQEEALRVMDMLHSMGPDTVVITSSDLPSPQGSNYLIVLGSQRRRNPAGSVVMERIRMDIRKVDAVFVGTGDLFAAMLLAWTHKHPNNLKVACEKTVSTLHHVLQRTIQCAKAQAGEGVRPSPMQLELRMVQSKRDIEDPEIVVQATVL
Source text: Supplement 41589_2023_1459_MOESM4_ESM.xlsx, sheet "CATDS matrix" | column: PDXK

MARK2 = test: Kinobeads competition binding: MARK2; parameters: species or system human; details: target MARK2
CDC42BPB = test: Kinobeads competition binding: CDC42BPB; parameters: species or system human; details: target CDC42BPB
NNT = test: Kinobeads competition binding: NNT; parameters: species or system human; details: target NNT;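 further: share of total target engagement due to this protein at one drug concentration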
MAP3K2 = test: Kinobeads competition binding: MAP3K2; parameters: species or system human; details: target MAP3K2
MAPK11 = test: Kinobeads competition binding: MAPK11; parameters: species or system human; details: target MAPK11
AGK = test: Kinobeads competition binding: AGK; parameters: species or system human; details: target AGK
CAMK4 = test: Kinobeads competition binding: CAMK4; parameters: species or system human; details: target CAMK4;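 further: selectivity score: engagement of this protein divided by summed engagement of all targets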
NEK1 = test: Kinobeads competition binding: NEK1; parameters: species or system human; details: target NEK1
CSNK1G1 = test: Kinobeads competition binding: CSNK1G1; parameters: species or system human; details: target CSNK1G1;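 further: share of total target engagement due to this protein at one drug concentration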
ADCK1 = target: T3, ADCK1 (Homo sapiens, UniProt Q86TW2); test: Kinobeads competition binding: ADCK1; details: target ADCK1
T3 construct: endogenous in cells
T3 sequence (Q86TW2 1-530): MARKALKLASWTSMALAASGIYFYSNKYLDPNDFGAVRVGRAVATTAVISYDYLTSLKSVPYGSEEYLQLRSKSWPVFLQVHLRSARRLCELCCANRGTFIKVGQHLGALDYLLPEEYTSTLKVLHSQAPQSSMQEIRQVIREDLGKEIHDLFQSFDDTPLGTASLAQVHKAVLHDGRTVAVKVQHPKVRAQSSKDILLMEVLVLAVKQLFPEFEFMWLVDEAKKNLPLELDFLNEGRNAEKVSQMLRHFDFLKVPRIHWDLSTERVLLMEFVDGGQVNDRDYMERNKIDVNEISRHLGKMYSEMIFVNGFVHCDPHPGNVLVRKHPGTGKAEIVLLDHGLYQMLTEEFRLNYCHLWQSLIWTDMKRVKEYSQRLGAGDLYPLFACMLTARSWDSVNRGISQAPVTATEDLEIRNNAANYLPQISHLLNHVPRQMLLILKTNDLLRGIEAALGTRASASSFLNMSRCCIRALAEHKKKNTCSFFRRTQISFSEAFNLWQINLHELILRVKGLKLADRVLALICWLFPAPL
Source text: Supplement 41589_2023_1459_MOESM4_ESM.xlsx, sheet "CATDS matrix" | column: ADCK1

IRAK3 = test: Kinobeads competition binding: IRAK3; parameters: species or system human; details: target IRAK3
CDC42BPG = test: Kinobeads competition binding: CDC42BPG; parameters: species or system human; details: target CDC42BPG
PI4KA = test: Kinobeads competition binding: PI4KA; parameters: species or system human; details: target PI4KA
GSK3A = target: T4, GSK3A (Homo sapiens, UniProt P49840); test: Kinobeads competition binding: GSK3A; details: target GSK3A
T4 construct: endogenous in cells

DYRK1A = target: T5, DYRK1A (Homo sapiens, UniProt Q13627); test: Kinobeads competition binding: DYRK1A; details: target DYRK1A
T5 construct: endogenous in cells

PKMYT1 = test: Kinobeads competition binding: PKMYT1; parameters: species or system human; details: target PKMYT1
HSP90B1 = target: T6, HSP90B1 (Homo sapiens, UniProt P14625); test: Kinobeads competition binding: HSP90B1; details: target HSP90B1;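 further: share of total target engagement due to this protein at one drug concentration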
T6 construct: endogenous in cells

AKT3 = target: T7, AKT3 (Homo sapiens, UniProt Q9Y243); test: Kinobeads competition binding: AKT3; details: target AKT3
T7 construct: endogenous in cells

CSNK1D = target: T8, CSNK1D (Homo sapiens, UniProt P48730); test: Kinobeads competition binding: CSNK1D; details: target CSNK1D
T8 construct: endogenous in cells

CDC42BPA = test: Kinobeads competition binding: CDC42BPA; parameters: species or system human; details: target CDC42BPA;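 further: selectivity score: engagement of this protein divided by summed engagement of all targets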
JAK1 = test: Kinobeads competition binding: JAK1; parameters: species or system human; details: target JAK1;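 further: target engagement share of this target among all targets at its Kdapp concentration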
BTK = target: T9, BTK (Homo sapiens, UniProt Q06187); test: Kinobeads competition binding: BTK; details: target BTK
T9 construct: endogenous in cells
Source text: Supplement 41589_2023_1459_MOESM4_ESM.xlsx, sheet "CATDS matrix" | column: BTK

CDK2 = target: T10, CDK2 (Homo sapiens, UniProt P24941); test: Kinobeads competition binding: CDK2; details: target CDK2
T10 construct: endogenous in cells

CLK2 = test: Kinobeads competition binding: CLK2; parameters: species or system human; details: target CLK2
CDK12 = test: Kinobeads competition binding: CDK12; parameters: species or system human; details: target CDK12

T9 sequence (Q06187 whole entry): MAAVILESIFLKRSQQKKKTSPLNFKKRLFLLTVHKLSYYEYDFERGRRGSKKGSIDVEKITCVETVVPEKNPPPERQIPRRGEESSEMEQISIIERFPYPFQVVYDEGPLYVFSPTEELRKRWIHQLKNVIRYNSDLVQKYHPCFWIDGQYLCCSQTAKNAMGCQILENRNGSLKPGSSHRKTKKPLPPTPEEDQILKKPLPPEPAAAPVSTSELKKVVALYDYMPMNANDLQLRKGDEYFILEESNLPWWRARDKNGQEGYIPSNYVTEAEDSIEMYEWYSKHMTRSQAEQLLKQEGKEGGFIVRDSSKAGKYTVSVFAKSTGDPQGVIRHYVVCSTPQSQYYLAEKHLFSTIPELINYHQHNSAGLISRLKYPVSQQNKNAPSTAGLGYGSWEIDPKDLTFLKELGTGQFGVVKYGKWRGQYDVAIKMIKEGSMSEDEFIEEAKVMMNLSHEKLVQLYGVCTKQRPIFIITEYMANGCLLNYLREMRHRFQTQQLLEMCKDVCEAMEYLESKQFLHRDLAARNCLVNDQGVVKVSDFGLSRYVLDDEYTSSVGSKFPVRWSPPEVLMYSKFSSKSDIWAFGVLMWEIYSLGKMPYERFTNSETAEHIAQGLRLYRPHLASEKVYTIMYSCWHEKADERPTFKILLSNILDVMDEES
T4 sequence (P49840 whole entry): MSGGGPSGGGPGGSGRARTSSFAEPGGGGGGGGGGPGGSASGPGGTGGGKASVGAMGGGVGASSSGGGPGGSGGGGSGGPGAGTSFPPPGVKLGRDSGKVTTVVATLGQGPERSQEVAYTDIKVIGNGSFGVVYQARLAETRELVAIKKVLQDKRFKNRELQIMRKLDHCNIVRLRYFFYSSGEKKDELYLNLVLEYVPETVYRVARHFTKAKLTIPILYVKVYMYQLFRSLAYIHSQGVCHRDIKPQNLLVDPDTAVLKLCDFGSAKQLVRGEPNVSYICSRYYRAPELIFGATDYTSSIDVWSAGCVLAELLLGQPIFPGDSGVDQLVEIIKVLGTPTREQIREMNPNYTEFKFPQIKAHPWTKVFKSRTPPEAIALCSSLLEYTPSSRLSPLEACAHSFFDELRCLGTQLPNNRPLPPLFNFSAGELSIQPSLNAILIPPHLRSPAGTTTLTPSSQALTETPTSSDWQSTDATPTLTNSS
T8 sequence (P48730 whole entry): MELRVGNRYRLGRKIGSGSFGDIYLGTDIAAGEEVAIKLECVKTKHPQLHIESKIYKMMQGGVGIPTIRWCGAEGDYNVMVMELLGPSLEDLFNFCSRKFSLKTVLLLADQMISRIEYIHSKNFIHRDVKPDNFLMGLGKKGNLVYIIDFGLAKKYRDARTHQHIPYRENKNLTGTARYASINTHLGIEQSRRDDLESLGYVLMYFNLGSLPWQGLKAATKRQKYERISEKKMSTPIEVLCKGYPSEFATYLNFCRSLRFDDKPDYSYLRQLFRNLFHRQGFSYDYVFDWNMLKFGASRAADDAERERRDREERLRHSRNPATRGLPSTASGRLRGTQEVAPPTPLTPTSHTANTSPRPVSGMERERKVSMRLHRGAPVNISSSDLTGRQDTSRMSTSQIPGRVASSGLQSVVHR
T6 sequence (P14625 22-803): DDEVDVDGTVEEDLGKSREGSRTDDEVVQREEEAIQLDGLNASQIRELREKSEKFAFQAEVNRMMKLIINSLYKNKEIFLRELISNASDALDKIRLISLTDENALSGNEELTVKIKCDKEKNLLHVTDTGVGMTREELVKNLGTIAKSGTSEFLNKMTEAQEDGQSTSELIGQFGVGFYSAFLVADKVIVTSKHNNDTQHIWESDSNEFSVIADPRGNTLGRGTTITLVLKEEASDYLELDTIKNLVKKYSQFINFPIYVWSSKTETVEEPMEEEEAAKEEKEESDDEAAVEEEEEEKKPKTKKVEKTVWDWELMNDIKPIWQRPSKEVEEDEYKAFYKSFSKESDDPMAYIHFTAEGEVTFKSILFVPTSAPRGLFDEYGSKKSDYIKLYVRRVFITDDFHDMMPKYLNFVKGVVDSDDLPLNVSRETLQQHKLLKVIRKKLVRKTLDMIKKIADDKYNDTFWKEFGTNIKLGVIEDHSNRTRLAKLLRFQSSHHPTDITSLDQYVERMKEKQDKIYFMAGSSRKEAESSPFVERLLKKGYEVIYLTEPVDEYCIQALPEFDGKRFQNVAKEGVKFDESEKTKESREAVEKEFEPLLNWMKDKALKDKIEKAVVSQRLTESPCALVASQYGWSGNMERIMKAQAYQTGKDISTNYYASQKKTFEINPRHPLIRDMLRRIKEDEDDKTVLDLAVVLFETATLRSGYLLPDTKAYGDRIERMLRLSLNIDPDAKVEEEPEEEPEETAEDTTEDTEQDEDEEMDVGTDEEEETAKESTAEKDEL
T1 sequence (Q13554 whole entry): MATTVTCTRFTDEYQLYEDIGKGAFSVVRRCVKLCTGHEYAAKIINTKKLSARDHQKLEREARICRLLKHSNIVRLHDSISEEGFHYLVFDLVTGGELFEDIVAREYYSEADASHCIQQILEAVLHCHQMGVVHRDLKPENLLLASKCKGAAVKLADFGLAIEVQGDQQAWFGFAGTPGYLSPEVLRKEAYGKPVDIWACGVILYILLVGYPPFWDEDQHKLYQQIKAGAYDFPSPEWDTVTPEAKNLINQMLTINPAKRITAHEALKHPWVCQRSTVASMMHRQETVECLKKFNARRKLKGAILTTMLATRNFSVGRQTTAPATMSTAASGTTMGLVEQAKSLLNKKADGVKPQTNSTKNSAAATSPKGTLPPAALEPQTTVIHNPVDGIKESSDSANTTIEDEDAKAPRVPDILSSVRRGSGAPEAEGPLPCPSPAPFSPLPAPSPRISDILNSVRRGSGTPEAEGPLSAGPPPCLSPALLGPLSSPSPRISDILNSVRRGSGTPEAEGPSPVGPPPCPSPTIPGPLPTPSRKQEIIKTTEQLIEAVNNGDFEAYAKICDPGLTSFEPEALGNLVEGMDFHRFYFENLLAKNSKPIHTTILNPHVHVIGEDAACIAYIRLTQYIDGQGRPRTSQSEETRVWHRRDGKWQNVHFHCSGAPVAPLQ
T7 sequence (Q9Y243 whole entry): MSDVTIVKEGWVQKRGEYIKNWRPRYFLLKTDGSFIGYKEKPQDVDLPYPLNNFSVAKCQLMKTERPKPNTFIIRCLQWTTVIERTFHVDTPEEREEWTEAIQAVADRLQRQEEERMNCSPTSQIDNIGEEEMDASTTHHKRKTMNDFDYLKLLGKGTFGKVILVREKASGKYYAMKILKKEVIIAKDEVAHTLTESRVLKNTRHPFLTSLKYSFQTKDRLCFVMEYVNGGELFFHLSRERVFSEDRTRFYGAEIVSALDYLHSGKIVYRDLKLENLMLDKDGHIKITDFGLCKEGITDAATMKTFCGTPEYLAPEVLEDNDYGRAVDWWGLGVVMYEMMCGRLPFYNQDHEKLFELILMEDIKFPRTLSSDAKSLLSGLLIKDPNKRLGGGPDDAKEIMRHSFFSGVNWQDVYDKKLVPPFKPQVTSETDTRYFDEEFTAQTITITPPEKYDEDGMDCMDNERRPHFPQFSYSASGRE

| SMILES | CATDS (FN3KRP) | CATDS (MTHFD1) | CATDS (CAMK2B) | CATDS (PDXK) | CATDS (MARK2) | CATDS (CDC42BPB) | CATDS (NNT) | CATDS (MAP3K2) | CATDS (MAPK11) | CATDS (AGK) | CATDS (CAMK4) | CATDS (NEK1) | CATDS (CSNK1G1) | CATDS (ADCK1) | CATDS (PI4KA) | CATDS (GSK3A) | CATDS (HSP90B1) | CATDS (CSNK1D) | CATDS (BTK) | CATDS (CDK12) | other results |
| --- | --- | --- | --- | --- | --- | --- | --- | --- | --- | --- | --- | --- | --- | --- | --- | --- | --- | --- | --- | --- | --- |
| Nc1ncnc2[nH]c(-c3ccccc3)nc12 [AH5015_KCGS] | 0 | 0 | 0 | 0 | 0 | 0 | 0 | 0 | 0 | 0 | 0 | 0 | 0 | 0 | 0 | 0.1015 | 0 | 0 | 0 | 0 | CATDS (IRAK3): 0; CATDS (CDC42BPG): 0; CATDS (DYRK1A): 0; CATDS (PKMYT1): 0; CATDS (AKT3): 0; CATDS (CDC42BPA): 0; CATDS (JAK1): 0; CATDS (CDK2): 0; CATDS (CLK2): 0 |
| CCN1CCN(Cc2ccc(Nc3ncc(F)c(-c4cc(F)c5nc(C)n(C(C)C)c5c4)n3)nc2)CC1 [Abemaciclib] | 0 | 0 | 0.1515 | 0 | 0 | 0 | 0 | 0 | 0 | 0 | 0 | 0 | 0 | 0.02486 | 0 | 0.08929 | 0 | 0 | 0 | 0 | CATDS (IRAK3): 0; CATDS (CDC42BPG): 0; CATDS (PKMYT1): 0; CATDS (AKT3): 0; CATDS (CDC42BPA): 0; CATDS (JAK1): 0; CATDS (CLK2): 0 |
| CN(C)C/C=C/C(=O)Nc1cc2c(Nc3ccc(F)c(Cl)c3)ncnc2cc1O[C@H]1CCOC1 [Afatinib] | 0 | 0 | 0 | 0 | – | – | 0 | – | – | 0 | – | – | – | 0 | 0 | 0 | 0 | 0 | 0 | 0 | CATDS (CDK2): 0 |
| CCc1cc2c(cc1N1CCC(N3CCOCC3)CC1)C(C)(C)c1[nH]c3cc(C#N)ccc3c1C2=O [Alectinib] | 0 | 0 | 0 | 0 | 0 | 0 | 0 | 0 | 0 | 0 | 0 | 0 | 0 | 0 | 0 | 0 | 0 | 0 | 0 | 0 | CATDS (IRAK3): 0; CATDS (CDC42BPG): 0; CATDS (DYRK1A): 0; CATDS (PKMYT1): 0; CATDS (AKT3): 0; CATDS (CDC42BPA): 0; CATDS (JAK1): 0; CATDS (CDK2): 0; CATDS (CLK2): 0 |
| N#CC1(c2ccc(NC(=O)c3cccnc3NCc3ccncc3)cc2)CCCC1 [Apatinib] | 0 | 0 | 0 | 0 | 0 | 0 | 0 | 0 | 0 | 0 | 0 | 0 | 0 | 0 | 0 | 0 | 0 | 0 | 0 | 0 | CATDS (IRAK3): 0; CATDS (CDC42BPG): 0; CATDS (DYRK1A): 0; CATDS (PKMYT1): 0; CATDS (AKT3): 0; CATDS (CDC42BPA): 0; CATDS (JAK1): 0; CATDS (CDK2): 0; CATDS (CLK2): 0 |
